In PubChem BioAssay (NCI):
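Dose response: 5 concentrations. Exposure: 48 h. Format: 96-well plates. Endpoint: linear interpolation; highest concentration if not reached. TGI marks complete inhibition of growth.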

Key:
Experiment in all cases: growth of human tumour cells (NCI), 48 h
RXF 393 renal = tested on: RXF 393 renal
LXFL 529 NSCLC = tested on: LXFL 529 NSCLC
SK-MEL-28 melanoma = tested on: SK-MEL-28 melanoma
SF-295 CNS = tested on: SF-295 CNS
HOP-18 NSCLC = tested on: HOP-18 NSCLC
SK-MEL-5 melanoma = tested on: SK-MEL-5 melanoma
M14 melanoma = tested on: M14 melanoma
RPMI-8226 leukemia = tested on: RPMI-8226 leukemia
SF-268 CNS = tested on: SF-268 CNS
NCI/ADR-RES ovarian = tested on: NCI/ADR-RES ovarian
SR leukemia = tested on: SR leukemia

Row | SMILES | TGI (RXF 393 renal) | TGI (LXFL 529 NSCLC) | TGI (SK-MEL-28 melanoma) | TGI (SF-295 CNS) | TGI (HOP-18 NSCLC) | TGI (SK-MEL-5 melanoma) | TGI (M14 melanoma) | TGI (RPMI-8226 leukemia) | TGI (SF-268 CNS) | TGI (NCI/ADR-RES ovarian) | TGI (SR leukemia)
1 | CCN(CC)c1ccc(Cl)c2c1C(O)(C(C)C)C2(C)C (configuration not stated) | 29.7 µM | 31.5 µM | 37.1 µM | 33 µM | 27.3 µM | 28.8 µM | 30.5 µM | 31.2 µM | 44.2 µM |  | 
2 | COC(=O)c1sc(=S)sc1SCc1cccc(CSc2sc(=S)sc2C(=O)OC)c1 | 34.3 µM |  | > 100 µM | > 100 µM |  | > 100 µM | > 100 µM | > 100 µM | > 100 µM | > 100 µM | > 100 µM
3 | CC(=O)Nc1ccc2c(c1)C(=O)c1ccccc1-2 | > 100 µM | > 100 µM | > 100 µM | > 100 µM |  |  | > 100 µM | > 100 µM | > 100 µM |  | > 100 µM
4 | N#CCC(=O)N/N=C\C(O)C(O)C(O)C(O)CO (configuration not stated) | > 100 µM |  | > 100 µM | > 100 µM |  | > 100 µM | > 100 µM | > 100 µM | > 100 µM | > 100 µM | > 100 µM
5 | CC(=O)n1c2ccc(Br)cc2c2nc3ccccc3nc21 | > 100 µM |  | > 100 µM | > 100 µM |  | > 100 µM | > 100 µM | > 100 µM | > 100 µM | > 100 µM | > 100 µM
6 | O=c1c2sc3ccccc3sc=2c(=O)c2c(Cl)c(Cl)c(Cl)c(Cl)c12 | > 100 µM |  | > 100 µM | > 100 µM |  | > 100 µM | > 100 µM | > 100 µM | > 100 µM | > 100 µM | > 100 µM
7 | CC1C(OS(=O)(=O)c2ccc3[nH]c(=S)sc3c2)CC2C3(C)CCC2(C(C)C(=O)O)C(O)C13 (configuration not stated) | 61.2 µM |  | > 100 µM | 95.1 µM |  | 34.5 µM | 84.1 µM | 40.8 µM | > 100 µM | > 100 µM | 64.8 µM
8 | N/C(=N\N=C\c1nc2ccccc2o1)c1cnccn1 | > 100 µM |  | > 100 µM | > 100 µM |  | > 100 µM | > 100 µM | > 100 µM | > 100 µM | > 100 µM | > 100 µM
9 | CCc1nc(N)nc(N)c1-c1ccc(N2CCOCC2)c(N=[N+]=[N-])c1 | > 100 µM |  | > 100 µM | > 100 µM |  | > 100 µM | > 100 µM | > 100 µM | > 100 µM | > 100 µM | > 80.9 µM
10 | O=C(Nc1ccc(Cl)cc1Cl)C1C(=O)OC2(CCCCC2)OC1=O | 22 µM |  | 23.5 µM | 19.4 µM |  | 22.1 µM | 30.1 µM | 35.7 µM | 50.5 µM | 26.4 µM | 64.1 µM
11 | NS(=O)(=O)c1c(O)c2ccccc2oc1=O | > 100 µM |  | > 100 µM | > 100 µM |  | > 100 µM | > 100 µM | > 100 µM | > 100 µM | > 100 µM | > 100 µM
12 | COc1cc(Nc2nc3cc(C)ccc3nc2-c2ccccc2)cc(OC)c1OC |  | > 100 µM | 55.1 µM | 56 µM | 73.1 µM | 35.1 µM | > 100 µM |  | > 100 µM |  | 69.9 µM
13 | Cc1ccc2c(c1C)CC1(Cc3ccc(C)c(C)c3C1=O)C2=O (configuration not stated) | 54.3 µM |  | > 100 µM | > 100 µM |  | > 100 µM | > 100 µM | > 100 µM | > 100 µM | > 100 µM | > 100 µM
14 | O=c1oc2ccccc2c(-c2ccc(O)cc2)c1Oc1ccccc1 | > 74 µM |  | > 66.1 µM | 53.6 µM |  | 41.2 µM | 32.1 µM | > 100 µM | 25.6 µM | > 100 µM | > 100 µM
15 | O=C(/C=C/c1ccccc1)CCN1CCCCC1 | 75 µM |  | 58.5 µM | > 100 µM |  | > 100 µM | 32.4 µM | 66.1 µM | > 100 µM | > 100 µM | > 100 µM
16 | CCOc1ccc(NC(=O)C(=O)C(/C(=N/N)C(=O)OC)c2nc3ccc([N+](=O)[O-])cc3[nH]c2=O)cc1 (configuration not stated) | > 100 µM |  | > 100 µM | > 100 µM |  | > 100 µM | > 100 µM | > 100 µM | > 100 µM | > 100 µM | > 100 µM
